Measured values taken from patent US7544693B2 (priority 2003, dated 2009).

Target: α7 nAChR subtype (Rattus norvegicus, UniProt Q05941)
Type: binding
Conditions: read-out: KD of radioligand (saturation curves, one site model)

α7 nAChR subtype, sequence (Q05941 23-502 limits assumed): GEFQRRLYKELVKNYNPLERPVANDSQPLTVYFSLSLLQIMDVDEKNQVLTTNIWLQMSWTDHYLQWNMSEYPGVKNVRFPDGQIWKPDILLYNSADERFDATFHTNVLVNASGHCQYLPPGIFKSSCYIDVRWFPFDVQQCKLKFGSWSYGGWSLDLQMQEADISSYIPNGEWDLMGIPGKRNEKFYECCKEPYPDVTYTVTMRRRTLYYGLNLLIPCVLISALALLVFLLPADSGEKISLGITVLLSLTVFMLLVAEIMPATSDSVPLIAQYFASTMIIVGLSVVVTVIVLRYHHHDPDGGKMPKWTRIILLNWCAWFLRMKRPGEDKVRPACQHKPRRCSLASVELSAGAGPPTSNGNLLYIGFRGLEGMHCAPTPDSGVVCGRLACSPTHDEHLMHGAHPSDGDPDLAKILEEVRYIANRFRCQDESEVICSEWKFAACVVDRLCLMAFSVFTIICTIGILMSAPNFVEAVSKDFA

[^125I]-α-Bungarotoxin [[^125I]-α-BTX]
Kd: 1.67 nM
